What is called LC50 is the concentration lethal to half of the exposed cells or organisms. Usually IC50 stands for the concentration that gives 50% inhibition. Low values mean inhibition by little substance, high ones a need for much substance.

Consider ten molecules from ChEMBL document CHEMBL1141818, “Annonaceous acetogenins: recent progress” (J Nat Prod, 1999).

Values after ≈ are worked out from the molar mass of the structure shown.

The nature of assay [1]: Cytotoxicity against human Hep2.2.15 cells. It is filed as functional. The settings on record: HepG2 2.2.15, read-out: ED50 (the source's name).
Assay [2] can be described thus: Cytotoxicity against human Hep G2 cells. It is filed as functional. To be noted: HepG2, read-out: ED50 (the source's name).
Assay [3] in a line: Cytotoxicity against human CCM2 cells. The format is functional. To be noted: read-out: ED50 (the source's name).
A further assay deals with U-251. The assay is described as follows: Cytotoxicity against human U251 cells. The format is functional, cell-based.
A further assay concerns PC-3. Nature of the assay: Cytotoxicity against human PC-3 cells. It is filed as functional. To be noted: Homo sapiens, PC-3; read-out: ED50 (the source's name).
In another assay the test system is HT-29. The assay is described as follows: Cytotoxicity against human HT-29 cells. It is filed as functional. The settings on record: Homo sapiens, HT-29; read-out: ED50 (the source's name).
The test system of the next assay is A549. The assay is described as follows: Cytotoxicity against human A549 cells. The format is functional. The settings on record: Homo sapiens, A549; read-out: ED50 (the source's name).
The subject of the next assay is MIA PaCa-2. The assay is described as follows: Cytotoxicity against human MIA PaCa2 cells. It is filed as functional. To be noted: Homo sapiens, MIA PaCa-2; read-out: ED50 (the source's name).
Another assay relates to RPMI-7951. The assay is described as follows: Cytotoxicity against human RPMI-7951 cells. The format is functional. The settings on record: read-out: ED50 (the source's name).
Assay [4] deals with MCF7. The assay is described as follows: Cytotoxicity against human MCF7 cells. The format is functional. To be noted: Homo sapiens, MCF7; read-out: ED50 (the source's name).
The subject of assay [5] is Blattella germanica. The assay is described as follows: Ratio of LT50 for Blattella germanica Muncie fifth instars to LT50 for Blattella germanica Jwax fifth instars. The format is functional.
Assay [6] deals with Blattella germanica. Nature of the assay: Ratio of LT50 for Blattella germanica Muncie second instars to LT50 for Blattella germanica Jwax second instars. The format is functional.
The test system of a further assay is X5563. Nature of the assay: Cytotoxicity against human X5563 cells. The format is functional.
The next assay concerns Aedes aegypti. Nature of the assay: Insecticidal activity against yellow fever mosquito. The format is functional.
The test system of the next assay is KB. The assay is described as follows: Cytotoxicity against human KB cells. It is filed as functional, cell-based. The settings on record: for IC50: Homo sapiens, KB.
The test system of assay [7] is MCF7. Nature of the assay: Cytotoxicity against human wild type MCF7 cells at 1 ug/ml. It is filed as functional.
Assay [8] can be described thus: Inhibition of NADH oxidase.
The test system of another assay is HCT-8. The assay is described as follows: Cytotoxicity against human HCT8 cells. The format is functional, cell-based.
For the next assay, the system named is A2780. The assay is described as follows: Cytotoxicity against human A2780 cells. It is filed as functional, cell-based.
The next assay has as its system HL-60. The assay is described as follows: Cytotoxicity against human HL-60 cells. It is filed as functional, cell-based.

Consider `CCCCCCCCCCCC[C@@H](O)[C@H]1CC[C@H]([C@H](O)CC/C=C\CCCCCC[C@@H]2CC(CC(C)=O)C(=O)O2)O1` (mixture of isomers), for which the EC50 in assay [1] was 0.14 µg/mL; in assay [2] it was 0.047 µg/mL; in [3], 0.085 µg/mL.
For `CCCCCCCCCC[C@H](O)[C@@H]1CC[C@@H]([C@@H]2CC[C@@H]([C@@H](O)CCC(O)CCCCCCCCC[C@@H](O)CC3=C[C@H](C)OC3=O)O2)O1` (stereo partly drawn) [ARTICULIN], the EC50 in the assay with U-251 (read-out: ED50 (the source's name)) came to 0.01 µg/mL (≈ 0.015 µM); in the assay on PC-3 it was 1.9 µg/mL (≈ 2.85 µM); in the assay on HT-29, 0.6 µg/mL (≈ 0.9 µM); in the assay on A549, 0.006 µg/mL (≈ 0.009 µM); in the assay on MIA PaCa-2, 1 µg/mL (≈ 1.5 µM); in the assay with RPMI-7951, 0.01 µg/mL (≈ 0.015 µM). Also, the EC50 in the assay with MCF7 [4] came out at 0.004 µg/mL (≈ 0.006 µM).
`CCCCCCCCCC[C@H](O)[C@H]1CC[C@H]([C@H](O)CC[C@H](O)[C@@H]2CC[C@@H](CCCCCCC[C@@H](O)CC3=C[C@H](C)OC3=O)O2)O1` [BULLATALICIN]: the Ratio in the assay on Blattella germanica [5] is on record as 1.8; in the assay on Blattella germanica [6] it was 0.9. For the same molecule, the Activity in the assay on X5563 is listed as 67%. The molecule further showed an LC50 in the assay with Aedes aegypti of 0.1 µg/mL (≈ 0.157 µM).
The molecule `CCCCCCC(O)CCC[C@H](O)[C@@H]1CC[C@@H]([C@@H]2CC[C@H]([C@H](O)CCCCCCCCCCC3=C[C@H](C)OC3=O)O2)O1` (stereo partly drawn) [CAROLIN C] showed an ED50 with KB of 2 ×10⁻⁴ ug/ml. This molecule also had an Activity with MCF7 [7] of 50%.
On to `CCCCCCCCCC[C@@H](O)[C@@H]1CC[C@@H]([C@@H]2CC[C@@H]([C@@H](O)CCCCC(=O)CCCCCCCC3=C[C@H](C)OC3=O)O2)O1` [GUANACONNE], for which the IC50 in the assay on U-251 was 1.5 nM.
The molecule `CCCCCCCCCC[C@@H](O)[C@@H]1CC[C@H]([C@H]2CC[C@@H]([C@@H](O)CCCCCCCCCCC3=C[C@H](C)OC3=O)O2)O1` [MEMBRAROLLIN] registered an IC50 in assay [8] of 0.3 nM.
The molecule `CCCCCCCCCC[C@H](O)[C@@H]1CC[C@H]([C@H]2CC[C@@H]([C@H](O)CCCCCCCC[C@@H](O)CC3=C[C@H](C)OC3=O)O2)O1` [ROLLIMEMBRIN] registered an IC50 in assay [8] of 0.33 nM.
Consider `CCCCCCCCCCCC[C@@H](O)[C@H]1CC[C@H]([C@H](O)CC(O)CCCCCCCCCC(=O)CCC2=C[C@H](C)OC2=O)O1` (stereo partly drawn) [TONKININ B], for which the IC50 in the assay on KB was over 10 µg/mL; in the assay on HCT-8, 2.4 µg/mL (≈ 3.85 µM); with A2780 it was over 10 µg/mL; with HL-60, 0.06 µg/mL (≈ 0.0963 µM).
For `CCCCCCCCCCCCCC[C@H](O)[C@H]1CC[C@H]([C@@H](CC(O)CCCCCCCCCCC2=C[C@H](C)OC2=O)OC(C)=O)O1` (stereo partly drawn) [TONKININ C], the IC50 in the assay on KB is over 10 µg/mL; with HCT-8, 0.86 µg/mL (≈ 1.32 µM); with A2780 it was over 10 µg/mL; in the assay with HL-60 it was 0.00042 µg/mL (≈ 0.000645 µM).
In the case of `CCCCCCCCCC[C@@H](O)[C@H]1CC[C@@H]([C@H]2CC[C@H]([C@H](O)CCC[C@H](O)CCCCCCCC3=C[C@H](C)OC3=O)O2)O1` [TRILOBIN], the LC50 in the assay on Aedes aegypti was determined as 0.67 µg/mL (≈ 1.1 µM).
